Laboratory results reported in US11685738B2, “Fluorinated tetrahydronaphthyridinyl nonanoic acid derivatives and uses thereof” (OcuTerra Therapeutics, Inc., priority 2015, dated 2023).

Legend:
αvβ6 = αvβ6 (Homo sapiens (Human), UniProt P06756+P18564); assay: αVβ6–LAP-TGF β1 integrin binding assay (integrin-coupled beads, flow cytometry); conditions: for IC50: ligand LAP TGF-β1; for αvβ8/αvβ6: ratio of αvβ8 IC50 to αvβ6 IC50
Excerpt: (§1) All αV Integrins are known to bind to proteins with a RGD motif. Two RGD ligands were used in this study: Vitronectin (VN) as a ligand for αVβ3 and αVβ5 (Wayner et al., J. Cell Biol., 113 (4), 919-929, 1991), and LAP TGF-β1 (LAP1) as a ligand for αVβ6 and αVβ8 (Rognoni et al., Nat. Med., 20(4): 350-359, 2014). CWHM12 was used as a positive control for αVβ6 and αVβ8 (Henderson et al., Nat. Med. 19(12), 10.1038/nm.3282 2013), and Cilengitide as a positive control for αVβ3 and αVβ5 (Kumar et al., J. Pharmacol. Exp. Ther., 283, 843-853, 1997).
(§2) The integrin coupled Dyna beads were allowed to interact with respective ligands. The integrin-ligand complex was detected with either Primary/Secondary Antibody conjugated with Fluorescein Isothiocyanate (FITC). For αVβ3 and αVβ5, Vitronectin was used as a ligand and a primary antibody conjugated with FITC (Anti-VN-FITC Ab) was used to detect the interaction. For αVβ6 and αVβ8, LAP-TGF (31 was used as ligand and a primary antibody against LAP1 (Anti-LAP1 Ab) and a secondary antibody conjugated with FITC were used to detect the αVβ6/αVβ8-LAP-TGF (31 complex. Fluorescence was measured by Flow Cytometry analysis.
(§3) 5 mg of Dyna beads were weighed in a low protein binding microfuge (Eppendorf) tube (1.5 mL volume). The beads were re-suspended in 1 mL of Sodium Phosphate Buffer and vortexed at high speed for 30 seconds. The tube was then placed in a tube roller and tilt rotated for 10 min. After tilt rotation, the tube was placed on the Magna Spin and the beads were allowed to settle. The supernatant was discarded and the beads were washed three times. The beads were then re-suspended in 100 μL of Sodium Phosphate Buffer and 20 μL of washed beads were distributed into 5 low protein binding Eppendorf tubes (1 mg of beads in each tube). The beads were used for coupling integrins.
(§4) 20 μL of (1 mg) of beads were mixed with 20 μL of integrins (20 μg) and 20 μL of 3 M Ammonium Sulfate solution (final concentration of ammonium sulfate was 1M) to achieve a Bead: Protein ratio of 5 mg:100 μg. The solution was mixed gently and placed in a tube roller and incubated at 37° C. for 16 hours.
(§5) αVβ6/αVβ8 coupled beads were treated with the ligand LAP TGF-β1 (LAP1) at room temperature for 3 hours. The complex (Integrin+Ligand) was then treated with primary Ab (Anti-LAP1 Ab) overnight at 4° C. The whole complex (Integrin+Ligand+Primary Ab) was treated with Secondary Ab conjugated with FITC and incubated for 2 hours. The complex was analyzed by either plate reader or Flow Cytometer.
(§6) 10 μL of αVβ6/αVβ8 coupled beads were taken for the experiment. The concentration of integrins was 10 nM. 10 μL of LAP1 was taken (10 nM for aVβ6 and 20 nM for aVβ8). Reaction between integrin coupled beads and LAP1 was considered as the full reaction, and reaction without LAP1 or a compound of the disclosure was considered as the blank reaction. The samples were incubated in low protein binding tubes at room temperature for 3 hours. The tubes were briefly spun and placed in a Magna spin. The supernatant was removed. The beads were washed with assay buffer twice to remove excess LAP1 and then re-suspended in […] assay buffer containing 1:200 anti-LAP1 Ab (primary Ab). The tubes were placed in a tube roller and incubated at 4° C. overnight. After a brief spin, the tubes were then placed in a Magna spin and the supernatant was removed. The beads were washed with assay buffer twice to remove excess primary Ab and then re-suspended in 150 μL of assay buffer containing 1:500 secondary Ab conjugated with FITC. The tubes were incubated at room temperature for 2 hours in a tube roller. After a brief spin, the tubes were placed in a Magna spin and the supernatant was removed. The beads were washed with assay buffer twice followed by PBS. The beads were then re-suspended in 300 μL of PBS and analyzed by a Flow Cytometer (BD FACSCalibur, Software—BDcell Quest Pro Version 6). […]

αvβ8 = αvβ8 (Homo sapiens (Human), UniProt P06756+P26012); assay: αVβ8–LAP-TGF β1 integrin binding assay (integrin-coupled beads, flow cytometry); conditions: ligand LAP TGF-β1
Excerpt: as §1, §2, §3, §4, §5, §6

αvβ3 = αvβ3 (Homo sapiens (Human), UniProt P05106+P06756); assay: αVβ3–vitronectin integrin binding assay (integrin-coupled beads, flow cytometry); conditions: ligand vitronectin
Excerpt: as §1, §2, §3, §4
αVβ3/αVβ5 coupled beads were treated with the ligand at room temperature for 3 hours. The complex (Integrin+Ligand) was then treated with Anti-Vitronectin Ab conjugated with FITC overnight at 4° C. The complex was analyzed by either plate reader or Flow Cytometer.
10 μL of αVβ3/αVβ5 coupled beads were taken for the experiment. The concentration of integrins was 10 nM. 10 μL of vitronectin was taken. The concentration was 10 nM. Reaction between integrin coupled beads and vitronectin was considered as the full reaction, and reaction without vitronectin or a compound of the disclosure was considered as the blank reaction. The samples were incubated in low protein binding tubes at room temperature for 3 hours. The tubes were briefly spun and placed in a Magna spin. The supernatant was then removed. The beads were washed with assay buffer twice to remove excess vitronectin and then re-suspended in 150 μL of assay buffer containing 1:500 Anti-vitronectin Ab conjugated with FITC. The tubes were placed in a tube roller and incubated at 4° C. overnight. […] The beads were then re-suspended in […] PBS and analyzed by a Flow Cytometer (BD FACSCalibur, Software—BD Cell Quest Pro Version 6).
The samples were acquired using a BD FACSCalibur system and analyzed with BD Cell quest pro Version 6. […] Percentage of binding was calculated with respect to full reaction. […]

αvβ6, sequence (P06756 31-992): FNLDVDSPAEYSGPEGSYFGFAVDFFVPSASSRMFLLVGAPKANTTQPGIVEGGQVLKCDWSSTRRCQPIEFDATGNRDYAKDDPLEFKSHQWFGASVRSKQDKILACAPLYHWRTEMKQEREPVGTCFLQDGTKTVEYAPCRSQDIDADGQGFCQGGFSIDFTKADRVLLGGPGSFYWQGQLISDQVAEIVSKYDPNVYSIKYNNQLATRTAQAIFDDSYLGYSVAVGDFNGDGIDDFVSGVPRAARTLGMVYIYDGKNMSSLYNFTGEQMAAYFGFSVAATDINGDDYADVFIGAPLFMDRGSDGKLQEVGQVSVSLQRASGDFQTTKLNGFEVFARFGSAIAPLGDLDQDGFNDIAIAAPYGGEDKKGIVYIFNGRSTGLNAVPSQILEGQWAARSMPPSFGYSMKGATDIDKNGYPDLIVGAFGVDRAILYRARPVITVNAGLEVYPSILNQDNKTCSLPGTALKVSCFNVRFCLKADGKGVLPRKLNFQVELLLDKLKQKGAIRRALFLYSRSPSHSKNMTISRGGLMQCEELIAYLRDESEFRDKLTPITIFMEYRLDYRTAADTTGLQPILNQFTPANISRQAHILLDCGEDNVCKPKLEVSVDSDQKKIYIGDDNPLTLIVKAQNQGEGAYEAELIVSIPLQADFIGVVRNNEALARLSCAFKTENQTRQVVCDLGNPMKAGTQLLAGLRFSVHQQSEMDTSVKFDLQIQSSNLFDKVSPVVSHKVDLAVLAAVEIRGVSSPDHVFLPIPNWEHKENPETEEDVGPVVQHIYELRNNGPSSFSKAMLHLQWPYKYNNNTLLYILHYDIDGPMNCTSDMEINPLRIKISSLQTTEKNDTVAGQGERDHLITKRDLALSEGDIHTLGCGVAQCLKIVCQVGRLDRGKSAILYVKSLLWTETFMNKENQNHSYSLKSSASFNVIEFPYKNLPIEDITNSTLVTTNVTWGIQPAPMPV
αvβ6, sequence (P18564 22-707): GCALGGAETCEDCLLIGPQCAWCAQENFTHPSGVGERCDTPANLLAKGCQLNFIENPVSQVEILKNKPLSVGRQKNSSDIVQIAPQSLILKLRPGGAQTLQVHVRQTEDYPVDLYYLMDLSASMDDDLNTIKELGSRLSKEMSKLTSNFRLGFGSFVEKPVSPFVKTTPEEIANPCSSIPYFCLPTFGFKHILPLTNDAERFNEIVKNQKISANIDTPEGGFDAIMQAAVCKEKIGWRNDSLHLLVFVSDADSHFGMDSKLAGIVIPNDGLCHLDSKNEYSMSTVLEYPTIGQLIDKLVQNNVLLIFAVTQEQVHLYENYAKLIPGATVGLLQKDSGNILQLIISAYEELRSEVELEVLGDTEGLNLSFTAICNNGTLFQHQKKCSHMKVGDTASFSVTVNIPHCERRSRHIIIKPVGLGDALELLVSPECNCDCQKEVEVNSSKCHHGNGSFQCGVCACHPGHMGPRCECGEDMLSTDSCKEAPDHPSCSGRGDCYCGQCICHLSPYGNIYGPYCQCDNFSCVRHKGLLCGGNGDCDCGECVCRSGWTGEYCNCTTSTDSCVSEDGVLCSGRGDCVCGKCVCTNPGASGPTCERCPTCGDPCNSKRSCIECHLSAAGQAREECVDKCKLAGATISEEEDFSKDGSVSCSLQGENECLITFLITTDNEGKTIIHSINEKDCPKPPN
αvβ8, sequence (P06756 31-992): as the sequence (P06756 31-992) above
αvβ8, sequence (P26012 43-684): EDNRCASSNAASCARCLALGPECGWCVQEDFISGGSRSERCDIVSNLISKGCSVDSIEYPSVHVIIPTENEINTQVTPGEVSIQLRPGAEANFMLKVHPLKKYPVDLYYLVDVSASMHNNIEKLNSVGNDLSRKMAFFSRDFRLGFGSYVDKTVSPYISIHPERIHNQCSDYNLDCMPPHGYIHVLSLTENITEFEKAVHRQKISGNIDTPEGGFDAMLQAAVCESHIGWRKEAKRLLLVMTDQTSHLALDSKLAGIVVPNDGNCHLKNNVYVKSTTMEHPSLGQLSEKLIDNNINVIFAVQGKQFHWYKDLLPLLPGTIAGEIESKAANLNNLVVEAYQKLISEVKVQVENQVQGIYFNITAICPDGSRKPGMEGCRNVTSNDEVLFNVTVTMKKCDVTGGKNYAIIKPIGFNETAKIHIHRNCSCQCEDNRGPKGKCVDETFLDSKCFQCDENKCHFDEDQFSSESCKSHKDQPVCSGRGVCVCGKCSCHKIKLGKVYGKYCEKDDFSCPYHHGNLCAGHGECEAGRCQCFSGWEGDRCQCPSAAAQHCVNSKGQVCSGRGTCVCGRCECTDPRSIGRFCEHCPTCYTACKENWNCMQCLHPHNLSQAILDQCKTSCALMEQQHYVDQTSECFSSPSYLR
αvβ3, sequence (P06756 31-992): as the sequence (P06756 31-992) above
αvβ3, sequence (P05106 27-718): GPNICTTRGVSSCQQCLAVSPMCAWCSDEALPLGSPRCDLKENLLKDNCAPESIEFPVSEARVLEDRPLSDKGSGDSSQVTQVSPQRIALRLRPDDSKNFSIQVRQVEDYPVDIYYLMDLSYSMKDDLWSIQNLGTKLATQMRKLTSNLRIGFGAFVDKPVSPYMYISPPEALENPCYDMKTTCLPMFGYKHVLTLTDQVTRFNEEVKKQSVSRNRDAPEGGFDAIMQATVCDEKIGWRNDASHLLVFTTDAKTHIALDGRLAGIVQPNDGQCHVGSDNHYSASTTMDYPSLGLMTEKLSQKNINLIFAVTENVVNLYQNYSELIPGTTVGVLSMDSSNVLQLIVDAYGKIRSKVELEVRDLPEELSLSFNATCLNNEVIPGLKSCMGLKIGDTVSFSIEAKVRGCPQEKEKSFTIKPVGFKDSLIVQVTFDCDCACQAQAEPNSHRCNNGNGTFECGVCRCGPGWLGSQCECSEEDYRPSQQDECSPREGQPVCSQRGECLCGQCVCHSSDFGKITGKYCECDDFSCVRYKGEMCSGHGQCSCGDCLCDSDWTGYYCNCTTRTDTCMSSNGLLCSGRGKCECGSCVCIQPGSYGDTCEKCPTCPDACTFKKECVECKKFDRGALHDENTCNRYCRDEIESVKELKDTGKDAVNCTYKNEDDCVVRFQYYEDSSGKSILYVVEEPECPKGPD

IC50 (αvβ6) | αvβ8/αvβ6 (αvβ6) | IC50 (αvβ8) | IC50 (αvβ3) | Compound
5.69 nM | 3.75 | 21.4 nM | 1.4 nM | O=C(O)CC(CCCCCCc1ccc2c(n1)NCCC2)c1cnc2ccc(F)cc2c1 (stereo not shown) [Compound A4, 3-(6-fluoroquinolin-3-yl)-9-(5,6,7,8-tetrahydro-1,8-naphthyridin-2-yl)nonanoic acid]
18.2 nM | 4.37 | 79.3 nM | 0.57 nM | O=C(O)CC(CCCCCCc1ccc2c(n1)NCCC2)c1ccc(OC(F)F)nc1 (stereo not shown) [Compound A3, 3-(6-(difluoromethoxy)pyridin-3-yl)-9-(5,6,7,8-tetrahydro-1,8-naphthyridin-2-yl)nonanoic acid]
14.8 nM | 10.18 | 151 nM | 4.3 nM | O=C(O)CC(CCCCCCc1ccc2c(n1)NCCC2)c1ccc(Cl)c(C(F)(F)F)c1 (stereo not shown) [Compound A23, 3-(4-chloro-3-(trifluoromethyl)phenyl)-9-(5,6,7,8-tetrahydro-1,8-naphthyridin-2-yl)nonanoic acid]
11.6 nM | 6.71 | 78.1 nM | 9 nM | O=C(O)CC(CCCCCCc1ccc2c(n1)NCCC2)c1cnc(C(F)(F)F)nc1 (stereo not shown) [Compound A2, 9-(5,6,7,8-tetrahydro-1,8-naphthyridin-2-yl)-3-(2-(trifluoromethyl)pyrimidin-5-yl)nonanoic acid]
